Values of other authors in US8952000B2, “Cholesterol absorption inhibitor and omega 3 fatty acids for the reduction of cholesterol and for the prevention or reduction of cardiovascular, cardiac and vascular events” (Pivotal Therapeutics Inc., priority 2011, dated 2015).

solubility in ethanol, methanol, and acetone (ethanol, methanol, acetone): freely to very soluble
solubility in water (water): practically insoluble
SMILES: O=C1[C@H](CC[C@H](O)c2ccc(F)cc2)[C@@H](c2ccc(O)cc2)N1c1ccc(F)cc1 [Ezetimibe, (3R,4S)-1-(p-fluorophenyl)-3-[(3S)-3-(p-fluorophenyl)-3-hydroxypropyl]-4-(p-hydroxyphenyl)-2-azetidinone]
